In patent US20250099420A1, “SMALL MOLECULE MODULATORS OF GPR139 COMPLEX” (University of Florida Research Foundation, Incorporated, priority 2022, published 2025):
Read-outs that look alike come from different tables or passages of the source.

Tests used:
parental HEK cells = experiment: HEK parental Agonist Counterscreen Assay (non-transfected cells); type: cell-based; settings: for Averaged Max % Response (±St. Dev.): activity relative to known control
From the text: The high control for the agonist counterscreen was Forskolin not acetylcholine.

GPR139 = target: T1, GPR139 (Homo sapiens, UniProt Q6DWJ6); experiment: GPR139 Agonist titration / agonist counterscreen assay (calcium detection, HEK-GPR139 cells); type: cell-based; design: expressed in transfected cells; host or cells: HEK Aequorin cells, Maxcyte transient transfection; settings: GPR139 Agonist Activity; for Averaged Max % Response (±St. Dev.): activity relative to known control; for EC50: read-out: EC50
T1 sequence (Q6DWJ6 1-353): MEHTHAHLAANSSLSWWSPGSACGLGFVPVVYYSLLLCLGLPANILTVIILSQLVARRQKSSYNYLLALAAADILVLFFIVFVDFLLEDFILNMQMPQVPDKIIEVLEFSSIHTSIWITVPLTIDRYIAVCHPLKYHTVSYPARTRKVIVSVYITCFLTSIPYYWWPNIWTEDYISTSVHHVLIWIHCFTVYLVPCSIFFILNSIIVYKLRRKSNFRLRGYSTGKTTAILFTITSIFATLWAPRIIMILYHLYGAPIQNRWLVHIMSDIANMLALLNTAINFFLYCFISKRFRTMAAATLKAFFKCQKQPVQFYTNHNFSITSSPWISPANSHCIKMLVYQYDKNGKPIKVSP
Method: GPR activity was assessed using a calcium detection assay. […] Negative control samples were treated with DMSO. […] Intracellular calcium was measured using Calcium 5.

[1] = Homo sapiens, HEK293, HEK Agonist Activity section of Table 4 (parental HEK counterscreen)
[2] = Homo sapiens, HEK293, HEK Agonist Activity, parental non-transfected HEK cells
[3] = values printed in E-notation without unit
[4] = HEK Agonist Activity, parental non-transfected HEK cells
[5] = HEK Agonist Activity section of Table 4 (parental HEK counterscreen)

Row | Lipophilic Efficiency (logD) (parental HEK cells; HEK Agonist Activity section) | Lipophilic Efficiency (logP) (parental HEK cells; HEK Agonist Activity section) | Efficiency Ligand (GPR139) | Hill Slope (GPR139) | Lipophilic Efficiency (logD) (GPR139) | Lipophilic Efficiency (logP) (GPR139) | Averaged Max % Response (±St. Dev.) (GPR139) [%] | EC50 (GPR139; HEK-GPR139 cells) [nM] | Lipophilic Efficiency (logD) (GPR139; based on logD) | Lipophilic Efficiency (logP) (GPR139; based on logP) | Hill Slope (GPR139; fitted dose-response curve) | Efficiency Ligand (GPR139; ligand efficiency) | EC50 (GPR139; [3]) [nM] | SMILES | Averaged Max % Response (±St. Dev.) (parental HEK cells; HEK Agonist Activity section) [%] | EC50 (parental HEK cells; [1]) [nM] | further results
1 | 1.44 | 1.44 | 0.31 | 1.14 | 2.62 | 2.62 | 78.27 ± 16.46 | – | – | – | – | – | – | Cc1ccc(CC2CCC(CC(=O)CC3CCCCCCC3)C2=O)cc1 (stereo not drawn) [SR-01000151470] | −9.17 ± 11.99 | > 14100 | –
2 | 1.18 | 1.18 | 0.29 | 0.79 | 2.38 | 2.38 | 89.89 ± 26.17 | 890 | – | – | – | – | – | Cc1nn(CC(=O)NC2CCCc3ccccc32)c(=O)c2c1sc1ccccc12 (stereo not drawn) [SR-01000139982] | 9.26 ± 7.81 | > 14100 | –
3 | – | – | – | – | – | – | 105.87 ± 4.30 | – | 4.97 | 4.93 | 0.88 | 0.35 | 11.9 | O=C(Cn1nnc(-c2ccccc2)n1)NNC(=O)Cn1c(C(F)(F)F)nc2ccccc21 [SR-01000070891] | – | – | Lipophilic Efficiency (logD) (parental HEK cells; HEK Agonist Activity): 1.86; Lipophilic Efficiency (logP) (parental HEK cells; HEK Agonist Activity): 1.83; Averaged Max % Response (±St. Dev.) (parental HEK cells; HEK Agonist Activity): 8.31 ± 6.92%; EC50 (parental HEK cells; [2]): > 15200 nM
4 | 1.53 | 1.53 | 0.36 | 1.14 | 2.89 | 2.89 | 93.30 ± 10.83 | 616 | – | – | – | – | – | CCSc1nc2sccn2c(=O)c1C(=O)NC(C)c1ccccc1 (stereo not drawn) [SR-01000378352] | 8.83 ± 9.35 | > 14100 | –
5 | – | – | – | – | – | – | 91.26 ± 4.77 | – | 5.92 | 5.67 | 0.48 | 0.37 | 22.6 | CC(C)(C)CN1CCNC(=O)C1CC(=O)NCCc1cnn(-c2ccccc2)c1 (stereo not drawn) [SR-01000177515] | – | – | Lipophilic Efficiency (logD) (parental HEK cells; HEK Agonist Activity): 3.12; Lipophilic Efficiency (logP) (parental HEK cells; HEK Agonist Activity): 2.87; Averaged Max % Response (±St. Dev.) (parental HEK cells; HEK Agonist Activity): 24.98 ± 4.71%; EC50 (parental HEK cells; [4]): > 14100 nM
6 | 2.16 | 2.16 | 0.36 | 1.01 | 3.49 | 3.49 | 76.40 ± 3.97 | 656 | – | – | – | – | – | Cc1c(Cl)c([N+](=O)[O-])nn1CC(=O)NC(C)COc1ccccc1 (stereo not drawn) [SR-01000318171] | 6.88 ± 5.68 | > 14100 | –
7 | 1.74 | 1.67 | – | – | – | – | 94.36 ± 3.49 | – | 3.88 | 3.82 | 0.63 | 0.41 | – | Cc1ccc(NC(=O)NNC(=O)COc2ccc(Cl)cc2)c(C)c1 [SR-01000309617] | −3.26 ± 4.40 | > 14400 | –
8 | 1.08 | 1.08 | – | – | – | – | 108.92 ± 9.07 | – | 3.26 | 3.26 | 0.44 | 0.36 | 93.2 | COc1ccc(CCNC(=O)c2cccc(-c3ccc(OC)nc3)c2)cc1 [SR-01000652579] | 11.17 ± 6.82 | – | EC50 (parental HEK cells; [5]): > 14200 nM
9 | 1.29 | 1.08 | 0.33 | 1.55 | 2.50 | 2.29 | 94.68 ± 16.83 | – | – | – | – | – | – | Cc1ccc(CNc2nc3ccccc3n2CCN2CCOCC2)cc1 [SR-01000364205] | −1.19 ± 1.27 | > 14100 | –
10 | 2.52 | 2.48 | 0.46 | 1.19 | 3.90 | 3.86 | 86.53 ± 11.45 | 580 | – | – | – | – | – | CCC(=O)NNC(=O)C(C)Oc1ccc(Cl)cc1Cl (stereo not drawn) [SR-01000316982] | 2.44 ± 4.96 | > 14100 | –
11 | 1.92 | 1.92 | – | – | – | – | 124.78 ± 10.06 | – | 3.82 | 3.82 | 0.77 | 0.31 | 178 | Cc1cccnc1CNC(=O)CCC1(Cc2cccc3ccccc23)CCC(=O)N1 (stereo not drawn) [SR-01000207758] | 2.94 ± 8.83 | – | EC50 (parental HEK cells; [5]): > 14100 nM
12 | 2.34 | 2.34 | – | – | – | – | 97.82 ± 12.25 | – | 4.42 | 4.42 | 0.70 | 0.40 | 116 | Cc1ccccc1CS(=O)(=O)CCC(=O)NC(C)c1ccccc1 (stereo not drawn) [SR-01000145393] | 10.41 ± 2.89 | > 14100 | –
13 | 2.53 | 2.53 | – | – | – | – | 103.10 ± 11.12 | – | 4.60 | 4.60 | 0.87 | 0.39 | – | C=C(CC1C=CC2=C1c1ccccc1CC2)Nc1ccc(CC)cc1 (stereo not drawn) [SR-01000098976] | 25.21 ± 6.04 | > 14100 | –
14 | – | – | – | – | – | – | 99.72 ± 18.10 | – | 5.86 | 5.86 | 1.13 | 0.55 | 5 | O=C(Cn1ccc([N+](=O)[O-])n1)NCCc1ccc(Cl)cc1 [SR-01000299915] | – | – | Lipophilic Efficiency (logD) (parental HEK cells; HEK Agonist Activity): 2.40; Lipophilic Efficiency (logP) (parental HEK cells; HEK Agonist Activity): 2.40; Averaged Max % Response (±St. Dev.) (parental HEK cells; HEK Agonist Activity): 2.39 ± 2.18%; EC50 (parental HEK cells; [2]): > 14100 nM
15 | 2.79 | 1.38 | – | – | – | – | 116.35 ± 10.47 | – | 4.67 | 3.26 | 0.77 | 0.29 | 186 | O=C(Nc1ccc(-c2cn[nH]c2)cc1OCCN1CCCC1)C1COc2ccc(F)cc2C1.O=C(O)C(F)(F)F.O=C(O)C(F)(F)F (stereo not drawn) [SR-00000005389] | 31.02 ± 4.14 | – | EC50 (parental HEK cells; [5]): > 14100 nM
16 | 0.80 | 0.80 | 0.29 | 1.12 | 2.20 | 2.20 | 116.90 ± 31.97 | 556 | – | – | – | – | – | COc1cc(-c2noc(CCC(=O)Nc3cccc(C)c3C)n2)cc(OC)c1OC [SR-01000139458] | 16.10 ± 9.95 | – | EC50 (parental HEK cells; [5]): > 14100 nM
17 | – | – | – | – | – | – | 94.95 ± 1.55 | – | 4.44 | 4.44 | 0.71 | 0.39 | 19.1 | CC(NC(=O)Cn1cc(NC(=O)c2ccccc2F)cn1)c1ccccc1Cl (stereo not drawn) [SR-01000194602] | – | – | Lipophilic Efficiency (logD) (parental HEK cells; HEK Agonist Activity): 1.58; Lipophilic Efficiency (logP) (parental HEK cells; HEK Agonist Activity): 1.58; Averaged Max % Response (±St. Dev.) (parental HEK cells; HEK Agonist Activity): 4.93 ± 4.93%; EC50 (parental HEK cells; [4]): > 14100 nM
18 | 0.70 | 0.70 | 0.36 | 0.68 | 2.32 | 2.32 | 76.15 ± 6.21 | 335 | – | – | – | – | – | Cn1c(CCc2ccc(F)cc2F)nnc1C1=C(O)N=C2CC=CC21 (stereo not drawn) [SR-01000922914] | −4.64 ± 6.81 | > 14100 | –
19 | 4.40 | 4.40 | – | – | – | – | 100.35 ± 10.43 | – | 6.65 | 6.65 | 0.39 | 0.37 | 79.7 | COc1ccccc1NC(=O)NNC(=O)CN1C(=O)COc2ccccc21 [SR-01000336035] | −5.99 ± 6.97 | > 14100 | –
